The test system of one experiment is M-NFS-60 cells. Put plainly: M-NFS-60 cell proliferation assay (resazurin). The format is cell-based. Particulars: 67 h incubation. How it is done: M-NFS-60 cells (catalog #CRL-1838) were obtained from the American Type Culture Collection (ATCC, Manassas, Va.). Briefly, cells were grown in suspension in RPMI 1640 medium supplemented with 10% characterized fetal bovine serum (Invitrogen, Carlsbad, Calif.), 0.05 mM 2-mercaptoethanol, and 20 ng/mL mouse recombinant macrophage colony stimulating factor (M-CSF) at 37° C., 5% CO2, and 95% humidity. Cells were allowed to expand until reaching saturation at which point they were subcultured or harvested for assay use.
M-NFS-60 Cell Proliferation Assay
A serial dilution of test compound was dispensed into a 384-well black clear bottom plate (Corning, Corning, N.Y.). Two thousand five hundred cells were added per well in 50 μL complete growth medium. Plates were incubated for 67 h at 37° C., 5% CO2, and 95% humidity. At the end of the incubation period 10 μL of a 440 μM solution of resazurin (Sigma, St. Louis, Mo.) in PBS was added to each well and incubated for an additional 5 h at 37° C., 5% CO2, and 95% humidity. Plates were read on a Synergy2 reader (Biotek, Winooski, Vt.) using an excitation of 540 nm and an emission of 600 nm. IC50 values were calculated from a series of percent inhibition values determined at a range of inhibitor concentrations using software routines as implemented in the GraphPad Prism software package.

Experiment [1] addresses unphosphorylated c-FMS kinase (uFMS, Seq. ID no. 1) (Homo sapiens (Human), UniProt P07333). Put plainly: uFMS kinase assay (ADP production coupled to pyruvate kinase/lactate dehydrogenase). The class given is biochemical. Particulars: enzymatic assay, ATP 500 μM; read-out: uFMS. How it is done:
uFMS kinase (Seq. ID No. 1) Assay
In this assay, the oxidation of NADH (thus the decrease at A340 nm) was continuously monitored spectrophometrically. The reaction mixture (100 μL) contained FMS (purchased from Millipore) (10 nM), polyE4Y (1 mg/mL), MgCl2 (10 mM), pyruvate kinase (4 units), lactate dehydrogenase (0.7 units), phosphoenol pyruvate (1 mM), NADH (0.28 mM) and ATP (500 μM) in 90 mM Tris buffer containing 0.2% octyl-glucoside and 1% DMSO, pH 7.5. The inhibition reaction was started by mixing serial diluted test compound with the above reaction mixture. The absorption at 340 nm was monitored continuously for 4 hours at 30° C. on Synergy 2 plate reader. The reaction rate was calculated using the 3 to 4 h time frame. Percent inhibition was obtained by comparison of reaction rate with that of a control (i.e., in the absence of test compound). IC50 values were calculated from a series of percent inhibition values determined at a range of inhibitor concentrations using software routines as implemented in the GraphPad Prism software package.
uFMS Kinase Sequence (Y538-End) Used for Screening (Seq. ID No. 1)

Experiment [2] has as its target unphosphorylated PDGFRβ kinase (uPDGFRβ, Seq. ID No. 3) (Homo sapiens (Human), UniProt P09619). As to the kind of experiment: Unphosphorylated PDGFRβ kinase assay (coupled pyruvate kinase/lactate dehydrogenase). Particulars: enzymatic assay, ATP 500 μM. The format is biochemical. Here is the method: Unphosphorylated PDGFRβ (uPDGFRβ) Kinase (Seq. ID No. 3) Assay
Activity of unphosphorylated PDGFRβ kinase (uPDGFRβ, Seq. ID No. 3) was determined by following the production of ADP from the kinase reaction with ATP and poly E4Y as substrates through coupling with the pyruvate kinase/lactate dehydrogenase system (e.g., Schindler et al. Science (2000) 289: 1938-1942). In this assay, the oxidation of NADH (thus the decrease at A340 nm) was continuously monitored spectrophometrically. The reaction mixture (100 μL) contained PDGFRβ (DeCode, 15.7 nM), polyE4Y (2.5 mg/mL), MgCl2 (10 mM), pyruvate kinase (4 units), lactate dehydrogenase (0.7 units), phosphoenol pyruvate (1 mM) and NADH (0.28 mM) and ATP (500 μM) in a 90 mM Tris buffer containing 0.2% octyl-glucoside and 1% DMSO, at pH 7.5. The inhibition reaction was started by mixing serial diluted test compound with the above reaction mixture. The absorption at 340 nm was monitored continuously for 4 h at 30° C. on a Polarstar Optima or Synergy 2 plate reader. The reaction rate was calculated using the 1.5 to 2.5 h time frame. Percent inhibition was obtained by comparison of reaction rate with that of a control (i.e., with no test compound). IC50 values were calculated from a series of percent inhibition values determined at a range of inhibitor concentrations using software routines as implemented in the GraphPad Prism software package.
uPDGFRβ Kinase Sequence (Residues 557-1106) Used for Screening (Seq ID No. 3)

A further experiment relates to osteoclast precursors. Put plainly: Osteoclast tartrate-resistant acid phosphatase assay. Particulars: Osteoclast, 7-14 days, RANKL and M-CSF. The class given is cell-based. How it is done: Osteoclast Tartrate-Resistant Acid Phosphatase Assay
A serial dilution of test compound was dispensed into a 384-well black clear bottom plate (Nalge Nunc International, Rochester, N.Y.). Compound was diluted by the addition of DMEM media supplemented with 10% characterized fetal bovine serum (Invitrogen, Carlsbad, Calif.). Diluted compound was transferred to a 384-well black clear bottom plate. Two-thousand five hundred osteoclast precursors (Lonza, Walkersville, Md.) were added per well in growth media containing Receptor Activator of Nuclear Factor Kappa-beta ligand (RANKL) and M-CSF (R&D Systems, Minneapolis, Minn.). Plates were incubated for 7-14 days at 37 degrees Celsius, 5% CO2, and 95% humidity to allow differentiation of osteoclast precursors. At the end of the incubation period, 10 μL of supernatant from each well was transferred to a clear 384-well plate. Tartrate-resistant acid phosphatase activity in the supernatant samples was determined using an acid phosphatase assay kit (Sigma, St. Louis, Mo.). Absorbance was measured at 550 nm using a plate reader. Data was analyzed using Prism software (Graphpad, San Diego, Calif.) to calculate IC50 values.

For experiment [3], the target named is unphosphorylated c-KIT kinase (uKIT, Seq. ID no. 2) (Homo sapiens (Human), UniProt P10721). Put plainly: uKit kinase assay (coupled pyruvate kinase/lactate dehydrogenase). The format is biochemical. Particulars: enzymatic assay, ATP 2000 μM. Here is the method: uKit Kinase (Seq. ID No. 2) Assay
Activity of unphosphorylated c-KIT kinase (uKIT, Seq. ID no. 2) was determined by following the production of ADP from the KIT kinase reaction with ATP and poly E4Y as substrates through coupling with the pyruvate kinase/lactate dehydrogenase system (e.g., Schindler et al. Science (2000) 289: 1938-1942). In this assay, the oxidation of NADH (thus the decrease at A340 nm) was continuously monitored spectrophometrically. The reaction mixture (100 μl) contained unphosphorylated KIT (12 nM), polyE4Y (1 mg/mL), MgCl2 (10 mM), pyruvate kinase (4 units), lactate dehydrogenase (0.7 units), phosphoenol pyruvate (1 mM), and NADH (0.28 mM) and ATP (2000 μM) in 90 mM Tris buffer containing 0.2% octyl-glucoside and 1% DMSO, pH 7.5. The inhibition reaction was started by mixing serial diluted test compound with the above reaction mixture. The absorption at 340 nm was monitored continuously for 4 hours at 30° C. on Synergy 2 plate reader (BioTech). Reaction rates around 3 to 4 h time frame were used to calculate % inhibitions, from which IC50 values were generated.
uKit with N-Terminal GST Fusion Used for Screening (Seq ID No. 2)

pIC50: −log10 of the molar value. Bounds are passed on as bounds.

Sequence of unphosphorylated c-FMS kinase (uFMS, Seq. ID no. 1) (P07333 538-972): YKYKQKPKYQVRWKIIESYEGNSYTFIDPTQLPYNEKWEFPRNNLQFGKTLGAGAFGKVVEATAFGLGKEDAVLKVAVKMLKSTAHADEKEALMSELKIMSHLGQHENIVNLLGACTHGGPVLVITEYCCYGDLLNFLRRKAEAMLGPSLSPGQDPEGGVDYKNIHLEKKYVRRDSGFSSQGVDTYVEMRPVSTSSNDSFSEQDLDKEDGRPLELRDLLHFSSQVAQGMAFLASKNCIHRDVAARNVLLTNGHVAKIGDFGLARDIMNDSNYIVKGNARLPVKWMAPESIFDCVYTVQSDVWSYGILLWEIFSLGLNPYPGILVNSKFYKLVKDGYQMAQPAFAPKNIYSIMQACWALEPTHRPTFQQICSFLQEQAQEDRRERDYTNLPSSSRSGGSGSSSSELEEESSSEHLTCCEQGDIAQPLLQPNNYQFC
Sequence of unphosphorylated c-KIT kinase (uKIT, Seq. ID no. 2) (P10721 other isoform, or with tags, fused parts or gaps): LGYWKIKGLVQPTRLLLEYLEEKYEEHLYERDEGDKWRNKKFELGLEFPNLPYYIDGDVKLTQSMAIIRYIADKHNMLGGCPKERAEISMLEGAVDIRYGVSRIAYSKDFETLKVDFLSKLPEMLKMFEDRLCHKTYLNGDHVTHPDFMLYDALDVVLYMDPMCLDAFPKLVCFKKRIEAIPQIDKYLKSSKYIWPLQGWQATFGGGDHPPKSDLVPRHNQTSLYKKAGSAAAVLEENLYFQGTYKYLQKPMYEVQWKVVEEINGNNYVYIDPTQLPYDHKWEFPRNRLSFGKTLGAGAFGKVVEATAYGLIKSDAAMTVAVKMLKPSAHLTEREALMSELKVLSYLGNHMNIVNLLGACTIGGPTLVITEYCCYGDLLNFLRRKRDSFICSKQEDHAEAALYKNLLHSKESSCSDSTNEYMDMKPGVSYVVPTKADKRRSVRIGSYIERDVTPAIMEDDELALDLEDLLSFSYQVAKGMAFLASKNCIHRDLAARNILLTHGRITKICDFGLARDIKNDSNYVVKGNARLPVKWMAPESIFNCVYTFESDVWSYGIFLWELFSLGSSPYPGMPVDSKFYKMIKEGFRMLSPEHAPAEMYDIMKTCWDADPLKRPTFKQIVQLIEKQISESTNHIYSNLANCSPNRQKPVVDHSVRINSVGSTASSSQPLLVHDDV
Sequence of unphosphorylated PDGFRβ kinase (uPDGFRβ, Seq. ID No. 3) (P09619 557-1106): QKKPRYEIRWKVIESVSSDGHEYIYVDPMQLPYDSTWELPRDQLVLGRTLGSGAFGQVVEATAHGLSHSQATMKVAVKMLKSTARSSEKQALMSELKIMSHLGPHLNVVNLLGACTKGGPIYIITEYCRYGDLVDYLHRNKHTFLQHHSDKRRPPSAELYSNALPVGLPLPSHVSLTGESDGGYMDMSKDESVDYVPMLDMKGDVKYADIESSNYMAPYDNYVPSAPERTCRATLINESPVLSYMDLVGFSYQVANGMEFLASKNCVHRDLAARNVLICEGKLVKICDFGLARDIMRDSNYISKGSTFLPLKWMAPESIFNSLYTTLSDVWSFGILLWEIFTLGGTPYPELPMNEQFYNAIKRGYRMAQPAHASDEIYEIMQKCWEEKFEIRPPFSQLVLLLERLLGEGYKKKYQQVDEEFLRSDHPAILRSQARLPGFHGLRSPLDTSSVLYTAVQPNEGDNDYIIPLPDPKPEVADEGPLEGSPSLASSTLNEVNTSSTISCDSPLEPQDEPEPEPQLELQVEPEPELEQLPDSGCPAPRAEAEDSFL

For the compound `COC[C@H](C)N1CCN(C(=O)Nc2cc(Cl)c(Oc3ccnc(-c4cnn(C)c4)c3)cc2F)C1=O` [Example 105, (S)—N-(5-chloro-2-fluoro-4-((2-(1-methyl-1H-pyrazol-4-yl)pyridin-4-yl)oxy)phenyl)-3-(1-methoxypropan-2-yl)-2-oxoimidazolidine-1-carboxamide], the pIC50 is 6.00 to 7.00 in the experiment on M-NFS-60 cells, 7.00 to 8.00 in experiment [1], below 6.00 in experiment [2] and 7.00 to 8.00 with osteoclast precursors.

Turning to `Cn1cc(-c2cc(Oc3cc(F)c(NC(=O)N4CCN(C5CCCCC5)C4=O)cc3Cl)ccn2)cn1` [Example 107, N-(5-chloro-2-fluoro-4-((2-(1-methyl-1H-pyrazol-4-yl)pyridin-4-yl)oxy)phenyl)-3-cyclohexyl-2-oxoimidazolidine-1-carboxamide], the pIC50 is 7.00 to 8.00 in the experiment on M-NFS-60 cells, above 8.00 in experiment [1], 6.00 to 7.00 in experiment [2] and 7.00 to 8.00 with osteoclast precursors.

In the case of `Cn1cc(-c2cc(Oc3cc(F)c(NC(=O)N4CCN(C5CCCC5)C4=O)cc3Cl)ccn2)cn1` [Example 111, N-(5-chloro-2-fluoro-4-((2-(1-methyl-1H-pyrazol-4-yl)pyridin-4-yl)oxy)phenyl)-3-cyclopentyl-2-oxoimidazolidine-1-carboxamide], the pIC50 with M-NFS-60 cells was 7.00 to 8.00; in experiment [1], above 8.00; in experiment [2] it was below 6.00; with osteoclast precursors it was above 8.00.

For `Cn1cc(-c2cc(Oc3cc(F)c(NC(=O)N4CCN(CCOC(F)(F)F)C4=O)cc3Cl)ccn2)cn1` [Example 106, N-(5-chloro-2-fluoro-4-((2-(1-methyl-1H-pyrazol-4-yl)pyridin-4-yl)oxy)phenyl)-2-oxo-3-(2-(trifluoromethoxy)ethyl)imidazolidine-1-carboxamide], the pIC50 is below 6.00 with M-NFS-60 cells, 7.00 to 8.00 in experiment [1], below 6.00 in experiment [2] and 6.00 to 7.00 with osteoclast precursors.

For `CCc1nc(NC(=O)N2CCN(C3CCOCC3)C2=O)ccc1Oc1ccnc(-c2ccnc(C)c2)c1` [Example 64, N-(6-ethyl-5-((2′-methyl-[2,4′-bipyridin]-4-yl)oxy)pyridin-2-yl)-2-oxo-3-(tetrahydro-2H-pyran-4-yl)imidazolidine-1-carboxamide], the pIC50 was below 6.00 in the experiment on M-NFS-60 cells, 6.00 to 7.00 in experiment [1], below 6.00 in experiment [3] and below 6.00 in the experiment with osteoclast precursors.

For `Cn1cc(-c2cc(Oc3cc(F)c(NC(=O)N4CCN(C5COC5)C4=O)cc3Cl)ccn2)cn1` [Example 104, N-(5-chloro-2-fluoro-4-((2-(1-methyl-1H-pyrazol-4-yl)pyridin-4-yl)oxy)phenyl)-3-(oxetan-3-yl)-2-oxoimidazolidine-1-carboxamide], the pIC50 in the experiment with M-NFS-60 cells is below 6.00; in experiment [1], 6.00 to 7.00; in experiment [2], below 6.00; in the experiment on osteoclast precursors it was 6.00 to 7.00.

`COCCN1CCN(C(=O)Nc2ccc(Oc3ccnc(-c4cnc(C)s4)c3)c(C)n2)C1=O` [Example 67, 3-(2-methoxyethyl)-N-(6-methyl-5-((2-(2-methylthiazol-5-yl)pyridin-4-yl)oxy)pyridin-2-yl)-2-oxoimidazolidine-1-carboxamide]: the pIC50 was 6.00 to 7.00 with M-NFS-60 cells, 6.00 to 7.00 in experiment [1], below 6.00 in experiment [3] and 6.00 to 7.00 with osteoclast precursors.

As to `CCc1nc(NC(=O)N2CCN(C3CCCC3)C2=O)ccc1Oc1ccnc(-c2cnc(C)s2)c1` [Example 78, 3-cyclopentyl-N-(6-ethyl-5-((2-(2-methylthiazol-5-yl)pyridin-4-yl)oxy)pyridin-2-yl)-2-oxoimidazolidine-1-carboxamide], the pIC50 in the experiment with M-NFS-60 cells is below 6.00; in experiment [1] it was 7.00 to 8.00; in experiment [3], below 6.00; in the experiment on osteoclast precursors, 6.00 to 7.00.

Consider `CCc1nc(NC(=O)N2CCN(C3CCOCC3)C2=O)ccc1Oc1ccnc(-c2ccc(C)nc2)c1` [Example 63, N-(6-ethyl-5-((6′-methyl-[2,3′-bipyridin]-4-yl)oxy)pyridin-2-yl)-2-oxo-3-(tetrahydro-2H-pyran-4-yl)imidazolidine-1-carboxamide], for which the pIC50 in the experiment with M-NFS-60 cells was below 6.00; in experiment [1], 6.00 to 7.00; in experiment [3], below 6.00; in the experiment with osteoclast precursors it was below 6.00.

`Cn1cc(-c2cc(Oc3cc(F)c(NC(=O)N4CCN(C5CCC(F)(F)CC5)C4=O)cc3Cl)ccn2)cn1` [Example 110, N-(5-chloro-2-fluoro-4-((2-(1-methyl-1H-pyrazol-4-yl)pyridin-4-yl)oxy)phenyl)-3-(4,4-difluorocyclohexyl)-2-oxoimidazolidine-1-carboxamide]: the pIC50 was 7.00 to 8.00 in the experiment with M-NFS-60 cells, above 8.00 in experiment [1] and below 6.00 in experiment [2].

Take `Cc1ncc(-c2cc(Oc3ccc(NC(=O)N4CCN(C5CC5)C4=O)nc3C)ccn2)s1` [Example 65, 3-cyclopropyl-N-(6-methyl-5-((2-(2-methylthiazol-5-yl)pyridin-4-yl)oxy)pyridin-2-yl)-2-oxoimidazolidine-1-carboxamide]: the pIC50 in the experiment with M-NFS-60 cells was 6.00 to 7.00; in experiment [1], 7.00 to 8.00; in experiment [3], 6.00 to 7.00; with osteoclast precursors, 7.00 to 8.00.

These data come from patent US9133183B2, “Imidazolidinones and analogs exhibiting anti-cancer and anti-proliferative activities” (Deciphera Pharmaceuticals, LLC, priority 2013, dated 2015).
